“And” between values parts separate entries of the source, which are not always exact repeats. Equal entries are not always repeated.
What was measured:
[1] = Pharmacokinetic study: plasma concentration and plasma PK parameters after IV/PO dosing (LC-MS/MS, WinNonlin); format: in vivo, Male SD Rat; settings: for AUCInf / AUClast / AUClast/D / AUC—% Extrap_obs / Cmax / MRTInf_obs / T1/2 / Tmax / AUCInf, Mean / AUClast, Mean / AUClast/D, Mean / AUC—% Extrap_obs, Mean / Cmax, Mean / MRTInf_obs, Mean / T1/2, Mean / Tmax, Mean: plasma
Source text: Pharmacokinetic and Brain Penetration Study
Dose formulation processing during dosing: The dose formulations will be kept at room temperature.
Concentrations of Test Article in the plasma samples will be analyzed using a LC-MS/MS method.
WinNonlin (Phoenix™, version 6.1) or other similar software will be used for pharmacokinetic calculations. The following pharmacokinetic parameters will be calculated, whenever possible from the plasma concentration versus time data:
IV administration: T1/2, C0, AUClast, AUCinf, MRTinf, Cl, Vss, Number of Points for Regression.
PO administration: T1/2, Cmax, Tmax, MRTinf, AUCinf, AUClast, F %, Number of Points for Regression.
The pharmacokinetic data will be described using descriptive statistics such as mean, standard deviation.

[2] = Solubility studies in water at 2 hours; format: physicochemical
[3] = male SD rat, PO 10 mg/kg (equal to freebase), individual rats, vehicle 20% HP-β-CD in water (POA, freebase) or water (salts), 10 mg/kg
[4] = male SD rat, PO 10 mg/kg (equal to freebase), mean n=3, vehicle 20% HP-β-CD in water (POA, freebase) or water (salts)
[5] = PO (group POF), 10 mg/kg, individual rats R49, R50, R51, 10 mg/kg
[6] = PO (group POF), 10 mg/kg, mean of R49-R51

COc1cc2c(cc1OC)C1Cc3ccc(O)c(OC)c3CN1CC2.CS(=O)(=O)O (stereo not drawn) [TLZ-16 mesylate]
F ([1]; male SD rat, PO 10 mg/kg (equal to freebase) vs IV 3 mg/kg freebase, individual rats, vehicle 20% HP-β-CD in water (POA, freebase) or water (salts)): 39.9% and 42.6% and 38.1%
F, Mean ([1]; male SD rat, PO 10 mg/kg (equal to freebase) vs IV 3 mg/kg freebase, mean n=3, vehicle 20% HP-β-CD in water (POA, freebase) or water (salts)): 40.2%
concentration in plasma ([1]; male SD rat, PO 10 mg/kg (equal to freebase), 0 h, individual rats, vehicle 20% HP-β-CD in water (POA, freebase) or water (salts)): BLOQ (BLOQ = below limit of quantitation (0.2 ng/mL))
concentration in plasma ([1]; male SD rat, PO 10 mg/kg (equal to freebase), 0.25 h, individual rats, vehicle 20% HP-β-CD in water (POA, freebase) or water (salts), 10 mg/kg): 227 ng/mL and 253 ng/mL and 256 ng/mL
concentration in plasma, Mean ([1]; male SD rat, PO 10 mg/kg (equal to freebase), 0.25 h, mean n=3, vehicle 20% HP-β-CD in water (POA, freebase) or water (salts)): 245 ng/mL
concentration in plasma ([1]; male SD rat, PO 10 mg/kg (equal to freebase), 0.5 h, individual rats, vehicle 20% HP-β-CD in water (POA, freebase) or water (salts), 10 mg/kg): 192 ng/mL and 233 ng/mL and 338 ng/mL
concentration in plasma, Mean ([1]; male SD rat, PO 10 mg/kg (equal to freebase), 0.5 h, mean n=3, vehicle 20% HP-β-CD in water (POA, freebase) or water (salts)): 254 ng/mL
concentration in plasma ([1]; male SD rat, PO 10 mg/kg (equal to freebase), 1 h, individual rats, vehicle 20% HP-β-CD in water (POA, freebase) or water (salts), 10 mg/kg): 162 ng/mL and 197 ng/mL and 208 ng/mL
concentration in plasma, Mean ([1]; male SD rat, PO 10 mg/kg (equal to freebase), 1 h, mean n=3, vehicle 20% HP-β-CD in water (POA, freebase) or water (salts)): 189 ng/mL
concentration in plasma ([1]; male SD rat, PO 10 mg/kg (equal to freebase), 2 h, individual rats, vehicle 20% HP-β-CD in water (POA, freebase) or water (salts), 10 mg/kg): 211 ng/mL and 180 ng/mL and 271 ng/mL
concentration in plasma, Mean ([1]; male SD rat, PO 10 mg/kg (equal to freebase), 2 h, mean n=3, vehicle 20% HP-β-CD in water (POA, freebase) or water (salts)): 221 ng/mL
concentration in plasma ([1]; male SD rat, PO 10 mg/kg (equal to freebase), 4 h, individual rats, vehicle 20% HP-β-CD in water (POA, freebase) or water (salts), 10 mg/kg): 208 ng/mL and 155 ng/mL and 122 ng/mL
concentration in plasma, Mean ([1]; male SD rat, PO 10 mg/kg (equal to freebase), 4 h, mean n=3, vehicle 20% HP-β-CD in water (POA, freebase) or water (salts)): 162 ng/mL
concentration in plasma ([1]; male SD rat, PO 10 mg/kg (equal to freebase), 8 h, individual rats, vehicle 20% HP-β-CD in water (POA, freebase) or water (salts), 10 mg/kg): 70.3 ng/mL and 40.7 ng/mL and 35.2 ng/mL
concentration in plasma, Mean ([1]; male SD rat, PO 10 mg/kg (equal to freebase), 8 h, mean n=3, vehicle 20% HP-β-CD in water (POA, freebase) or water (salts)): 48.7 ng/mL
concentration in plasma ([1]; male SD rat, PO 10 mg/kg (equal to freebase), 24 h, individual rats, vehicle 20% HP-β-CD in water (POA, freebase) or water (salts), 10 mg/kg): BLOQ (BLOQ = below limit of quantitation (0.2 ng/mL)) (2×) and 0.454 ng/mL
AUCInf [1, 3]: 1690 ng·h/mL and 1446 ng·h/mL and 1294 ng·h/mL
AUClast [1, 3]: 1331 ng·h/mL and 1444 ng·h/mL and 1190 ng·h/mL
AUClast/D [1, 3]: 133 kg·ng·h/mL/mg and 144 kg·ng·h/mL/mg and 119 kg·ng·h/mL/mg
AUC—% Extrap_obs [1, 3]: 21.2% and 0.109% and 8.09%
Cmax [1, 3]: 227 ng/mL and 253 ng/mL and 338 ng/mL
MRTInf_obs [1, 3]: 5.40 h and 4.15 h and 3.26 h
T1/2 [1, 3]: 3.54 h and 2.40 h and 2.06 h
Tmax [1, 3]: 0.25 h (2×) and 0.5 h
AUCInf, Mean [1, 4]: 1477 ng·h/mL
AUClast, Mean [1, 4]: 1322 ng·h/mL
AUClast/D, Mean [1, 4]: 132 kg·ng·h/mL/mg
AUC—% Extrap_obs, Mean [1, 4]: 9.82%
Cmax, Mean [1, 4]: 273 ng/mL
MRTInf_obs, Mean [1, 4]: 4.27 h
T1/2, Mean [1, 4]: 2.67 h
Tmax, Mean [1, 4]: 0.333 h
solubility in water [2]: approximately 20 mg/mL

COc1cc2c(cc1OC)[C@@H]1Cc3ccc(O)c(OC)c3CN1CC2.O=S(=O)(O)O [TLZ-16 sulfate]
F [1, 5]: 24.8% and 31.7% and 44.5%
F, Mean [1, 6]: 33.7%
concentration in plasma, Conc. ([1]; PO (group POF), 10 mg/kg, time 0 h, individual rats R49, R50, R51): BLOQ (BLOQ = below limit of quantitation (0.2 ng/mL))
concentration in plasma, Conc. ([1]; PO (group POF), 10 mg/kg, time 0.25 h, individual rats R49, R50, R51, 10 mg/kg): 231 ng/mL and 226 ng/mL and 349 ng/mL
concentration in plasma, Mean ([1]; PO (group POF), 10 mg/kg, time 0.25 h, mean of R49-R51): 269 ng/mL
concentration in plasma, Conc. ([1]; PO (group POF), 10 mg/kg, time 0.5 h, individual rats R49, R50, R51, 10 mg/kg): 229 ng/mL and 223 ng/mL and 401 ng/mL
concentration in plasma, Mean ([1]; PO (group POF), 10 mg/kg, time 0.5 h, mean of R49-R51): 284 ng/mL
concentration in plasma, Conc. ([1]; PO (group POF), 10 mg/kg, time 1 h, individual rats R49, R50, R51, 10 mg/kg): 117 ng/mL and 161 ng/mL and 240 ng/mL
concentration in plasma, Mean ([1]; PO (group POF), 10 mg/kg, time 1 h, mean of R49-R51): 173 ng/mL
concentration in plasma, Conc. ([1]; PO (group POF), 10 mg/kg, time 2 h, individual rats R49, R50, R51, 10 mg/kg): 119 ng/mL and 152 ng/mL and 189 ng/mL
concentration in plasma, Mean ([1]; PO (group POF), 10 mg/kg, time 2 h, mean of R49-R51): 153 ng/mL
concentration in plasma, Conc. ([1]; PO (group POF), 10 mg/kg, time 4 h, individual rats R49, R50, R51, 10 mg/kg): 103 ng/mL and 110 ng/mL and 203 ng/mL
concentration in plasma, Mean ([1]; PO (group POF), 10 mg/kg, time 4 h, mean of R49-R51): 139 ng/mL
concentration in plasma, Conc. ([1]; PO (group POF), 10 mg/kg, time 8 h, individual rats R49, R50, R51, 10 mg/kg): 22.4 ng/mL and 39.9 ng/mL and 87.8 ng/mL
concentration in plasma, Mean ([1]; PO (group POF), 10 mg/kg, time 8 h, mean of R49-R51): 50.0 ng/mL
concentration in plasma, Conc. ([1]; PO (group POF), 10 mg/kg, time 24 h, individual rats R49, R50, R51): BLOQ (BLOQ = below limit of quantitation (0.2 ng/mL))
AUCInf [1, 5]: 840 ng·h/mL and 1074 ng·h/mL and 2115 ng·h/mL
AUClast [1, 5]: 764 ng·h/mL and 899 ng·h/mL and 1486 ng·h/mL
AUClast/D [1, 5]: 76.4 kg·ng·h/mL/mg and 89.9 kg·ng·h/mL/mg and 149 kg·ng·h/mL/mg
AUC—% Extrap_obs [1, 5]: 9.10% and 16.3% and 29.8%
Cmax [1, 5]: 231 ng/mL and 226 ng/mL and 401 ng/mL
MRTInf_obs [1, 5]: 3.53 h and 4.44 h and 6.73 h
T1/2 [1, 5]: 2.37 h and 3.05 h and 4.97 h
Tmax [1, 5]: 0.25 h (2×) and 0.5 h
AUCInf, Mean [1, 6]: 1343 ng·h/mL
AUClast, Mean [1, 6]: 1049 ng·h/mL
AUClast/D, Mean [1, 6]: 105 kg·ng·h/mL/mg
AUC—% Extrap_obs, Mean [1, 6]: 18.4%
Cmax, Mean [1, 6]: 286 ng/mL
MRTInf_obs, Mean [1, 6]: 4.90 h
T1/2, Mean [1, 6]: 3.46 h
Tmax, Mean [1, 6]: 0.333 h
solubility in water [2]: approximately 20 mg/mL

— patent US11236081B2, “Crystalline salts of corydalmine” (priority 2018, dated 2022)
